12 molecules from PubChem BioAssay (NCI) can be followed below.

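All cell lines were grown in 96-well plates and treated with compound for 48 hours. Abbreviation: GI50, concentration required for 50% inhibition of growth. TGI: total growth inhibition.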

Holding throughout (assay): growth of human tumour cells (NCI), 48 h
The test system of assay [1] is MCF7 breast.
In assay [2] the test system is RPMI-8226 leukemia.
Assay [3] has as its system HOP-62 NSCLC.
The subject of assay [4] is UACC-62 melanoma.
The test system of assay [5] is SN12C renal.
Assay [6] relates to KM12 colon.
Assay [7] relates to SF-295 CNS.
In assay [8] the test system is SF-539 CNS.
Assay [9] relates to HOP-92 NSCLC.
Assay [10] concerns NCI-H522 lung.

For `COC(=O)C1C(O)C(C(=O)OC)C(C)N(C)C1C` (stereo not drawn), the TGI in assay [1], in assay [2], in assay [3], in assay [4], in assay [5] and in assay [6] was more than 100 µM throughout. Moreover, the TGI in assay [7], in assay [8] and in [9] was more than 100 µM in each case.

For `O=C(Nc1cc(Cl)ccc1O)c1ccc(Nc2ccnc(C(F)(F)F)c2)cc1`, the GI50 in assay [1] was 2.68 µM; in [2], 1.25 µM; in assay [3] it was 3.23 µM; in assay [4] it was 2.3 µM; in assay [5] it was 2.65 µM; in [6] it was 3.19 µM. In addition, the values for the GI50 in assay [7], in assay [8] and in assay [9] were 2.2 µM, 3.29 µM and 2.24 µM, respectively. In addition, the TGI in assay [1] was more than 100 µM; in [2] it was 3.83 µM; in [3], 23.7 µM; in assay [4], 15.5 µM; in assay [5], 32 µM; in assay [6], 18.8 µM. Moreover, the TGI was 7.03 µM in [7], more than 100 µM in assay [8] and 6.12 µM in [9].

In the case of `CCC/C=C/C=C/C1CC(O)C(O)C(=O)C1CO` (stereo not drawn), the TGI in assay [1], in assay [2], in [4], in [5], in assay [10] and in assay [6] was more than 100 µM each time. For the same molecule, the TGI in assay [7], in assay [8] and in [9] was more than 100 µM in each case.

For `COc1ccc(C(=O)c2cc(OC)c(OC)c(OC)c2)cc1OC`, the TGI in assay [1] is more than 100 µM; in [2] it was more than 100 µM; in [3], more than 100 µM; in [4], more than 100 µM; in [5], more than 100 µM; in assay [10], 12.3 µM. Besides, the values for the TGI in assay [6], in [7] and in assay [8] were 28.9 µM, 4.27 µM and 5.14 µM, respectively.

Consider `COc1cc2c(/C=N\N=C(N)N)c[nH]c2cc1C`, for which the GI50 in [1] was 13 µM; in assay [2], 14.3 µM; in assay [4], 16 µM; in assay [5] it was 11.2 µM; in assay [10] it was 17.3 µM; in assay [6], 14.9 µM. Further, the GI50 in assay [7] is 15.4 µM. For the same molecule, the TGI in [1] stood at 25.7 µM; in assay [2] it was 27.4 µM; in assay [4], 33 µM; in assay [5], 37.5 µM; in assay [10], 32.9 µM; in [6], 28 µM. This molecule came in with a TGI in assay [7] of 43.4 µM.

Regarding `COC(c1ccc(C(C)(C)C)cc1)(c1ccc(C(C)(C)C)cc1)c1ccc(C(C)(C)C)cc1`, the TGI in assay [1], in assay [2], in [3], in [4], in assay [5] and in [10] was more than 100 µM throughout. Further, the TGI in assay [6], in [7] and in [8] was more than 100 µM in each case.

Regarding `CC1CC(O)C(=O)C(O[C@@H]2C[C@@H]3CC[C@@H]4[C@H](CC[C@]5(C)C(C6=CC(=O)OC6)CC[C@]45O)[C@@]3(C=O)C[C@H]2O)O1` (stereo partly drawn), the TGI was 0.152 µM in assay [1]; 0.246 µM in assay [2]; 0.0492 µM in assay [3]; 0.178 µM in assay [4]; less than 0.0274 µM in assay [10]; 0.44 µM in assay [6]. The TGI in assay [7] amounted to 0.149 µM; in assay [8], 0.0586 µM.

On to `COc1ccc(-c2nc(-c3cc(OC)cc(OC)c3)[nH]c2-c2ccc(OC)cc2)cc1`, for which the GI50 is 3.77 µM in assay [1]; 2.49 µM in assay [2]; more than 100 µM in assay [3]; 4.75 µM in [4]; more than 100 µM in [5]; 3.42 µM in assay [10]. For the same molecule, the GI50 in assay [6] was 6.2 µM; in [7], 5.51 µM; in assay [8], more than 100 µM. Also, the TGI in assay [1] was more than 100 µM; in [2], 6.96 µM; in assay [3], more than 100 µM; in assay [4], more than 100 µM; in assay [5] it was more than 100 µM; in [10] it was 59.3 µM. For the same molecule, the TGI in assay [6], in assay [7] and in assay [8] was more than 100 µM throughout.

Consider `CC(C)CCC[C@@H](C)C1CCC2[C@@H]3CC=C4C[C@@H](C(=O)NCCN(C)C)CC[C@]4(C)C3CC[C@@]21C` (stereo partly drawn), for which the TGI in assay [2] is 94 µM; in [3], 61.2 µM; in assay [4] it was more than 100 µM; in assay [5], 46.7 µM; in assay [10] it was more than 100 µM; in assay [6], 28.2 µM. Moreover, the TGI is more than 100 µM in assay [7], 46 µM in [8] and 61.4 µM in assay [9].

On to `COc1cccc(/C=N/[N-]C(=O)c2ccncc2)c1[O-].COc1cccc(/C=N/[N-]C(=O)c2ccncc2)c1[O-].[O]=[U](=[O])([OH2+])[OH2+]`, for which the GI50 was 4.4 µM in [2]; 3.71 µM in assay [3]; 3.66 µM in assay [4]; 7.15 µM in [5]; 2.05 µM in [10]; 36.3 µM in [6]. Moreover, the GI50 was 5.86 µM in assay [7], 4.27 µM in assay [8] and 14.3 µM in [9]. For the same molecule, the TGI in assay [2] is 48 µM; in assay [3], 24.9 µM; in assay [4], 19.4 µM; in [5] it was 32.5 µM; in [10], 11 µM; in assay [6] it was more than 100 µM. In addition, the values for the TGI in [7], in assay [8] and in assay [9] were more than 54.7 µM, more than 42.8 µM and 54.5 µM, respectively.

As to `CCOC(=O)NC(=O)c1cn(C2CCCCC2)c(=O)[nH]c1=O`, the TGI in assay [2], in [3], in assay [4], in assay [5], in assay [10] and in [6] was more than 100 µM each time. Further, the TGI in [7], in [8] and in assay [9] was more than 100 µM each time.

Take `Cc1cc(Nc2nc(-c3cn(-c4ccc(Cl)cc4)nn3)nc3ccccc23)n[nH]1`: the GI50 is 27 µM in [1]; 19.6 µM in [2]; 14 µM in [3]; 10.7 µM in assay [5]; more than 50 µM in assay [10]; 4.95 µM in assay [6]. Also, the GI50 was 7.6 µM in assay [7], 27.3 µM in assay [8] and 23.6 µM in assay [9]. The TGI in [1], in assay [2], in assay [3], in [5], in assay [10] and in assay [6] was more than 50 µM in each case. The TGI was 38.5 µM in assay [7], more than 50 µM in [8] and more than 50 µM in [9].
